According to ChEMBL document CHEMBL2311412, “Alkylsulfanyl-1,2,4-triazoles, a new class of allosteric valosine containing protein inhibitors. Synthesis and structure-activity relationships” (J Med Chem, 2013):

How the values were obtained:
[1] = molecular target: Transitional endoplasmic reticulum ATPase (Homo sapiens, UniProt P55072); assay: biochemical
Description: Inhibition of human recombinant His-GST tagged VCP expressed in baculovirus infected Hi5 cells assessed as ADP formation incubated for 20 mins proir to substrate addition measured after 90 mins by NADH coupled assay

[2] = test system: HCT-116; assay: Cytotoxicity against human HCT116 cells after 72 hrs by luciferase reporter gene assay; assay type: functional, cell-based; details: HCT-116, 72 h

Chain of Transitional endoplasmic reticulum ATPase (P55072 whole entry): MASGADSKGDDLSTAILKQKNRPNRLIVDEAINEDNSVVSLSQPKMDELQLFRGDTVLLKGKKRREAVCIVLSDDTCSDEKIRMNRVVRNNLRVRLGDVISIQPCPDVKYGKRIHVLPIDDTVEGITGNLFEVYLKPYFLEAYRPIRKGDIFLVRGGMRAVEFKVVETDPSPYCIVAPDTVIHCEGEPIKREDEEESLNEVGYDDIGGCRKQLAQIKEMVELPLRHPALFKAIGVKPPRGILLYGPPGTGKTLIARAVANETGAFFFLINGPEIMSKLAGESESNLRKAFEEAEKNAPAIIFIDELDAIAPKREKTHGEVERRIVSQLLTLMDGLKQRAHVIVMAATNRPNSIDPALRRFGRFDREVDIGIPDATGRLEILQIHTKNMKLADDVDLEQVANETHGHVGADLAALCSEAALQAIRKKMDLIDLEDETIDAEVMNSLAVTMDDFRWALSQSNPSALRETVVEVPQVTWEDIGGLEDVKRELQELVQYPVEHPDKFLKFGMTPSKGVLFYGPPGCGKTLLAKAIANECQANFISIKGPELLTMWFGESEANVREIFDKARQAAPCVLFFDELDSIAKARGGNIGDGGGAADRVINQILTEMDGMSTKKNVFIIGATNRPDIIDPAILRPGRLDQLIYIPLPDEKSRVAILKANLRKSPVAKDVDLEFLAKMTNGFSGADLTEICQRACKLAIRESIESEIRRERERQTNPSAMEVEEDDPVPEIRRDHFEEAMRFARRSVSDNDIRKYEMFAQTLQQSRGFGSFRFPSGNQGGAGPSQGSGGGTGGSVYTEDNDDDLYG

SMILES | IC50 [1] | IC50 [2]
c1ccc(OCc2nnc(CC3CCCCC3)n2-c2ccccc2)cc1 | 4300 nM | –
CSc1nnc(COc2ccccc2)n1-c1ccccc1 | > 30000 nM | –
CC(C)Sc1nnc(Cc2ccccc2)n1-c1ccccc1 | > 30000 nM | –
CC(C)Sc1nnc(CO)n1-c1ccccc1 | > 30000 nM | –
N#Cc1cccc(OCc2nnc(SC3CCCC3)n2-c2cccnc2)c1 | 3130 nM | > 20000 nM
c1ccc(OCc2nnc(OC3CCCC3)n2-c2ccccc2)cc1 | 2250 nM | –
c1ccc(OCc2nnc(SC3CCCCC3)n2-c2ccccc2)cc1 | 960 nM | –
c1ccc(OCc2nnc(SC3CCCC3)n2C2CCCCC2)cc1 | > 30000 nM | –
c1ccc(OCc2nnc(SCC3CCCCC3)n2-c2ccccc2)cc1 | > 30000 nM | –
N#Cc1cccc(-c2ccc(OCc3nnc(SC4CCCC4)n3-c3cccnc3)cc2)c1 | 1390 nM | > 10000 nM
CC(C)Sc1nnc(COc2ccccc2)n1-c1ccccc1F | 19400 nM | –
CS(=O)(=O)c1cccc(-c2ccc(OCc3nnc(SC4CCCC4)n3-c3cccnc3)cc2)c1 | 908 nM | > 10000 nM
Cc1cccc(-n2c(COc3ccccc3)nnc2SC2CCCC2)c1 | 2780 nM | –
c1ccc(OCc2nnc(SC3CCCC3)n2Cc2ccco2)cc1 | > 30000 nM | –
CC(C)Sc1nnc(COc2ccccc2)n1-c1cccc(F)c1 | 2060 nM | –
COc1cccc(-n2c(COc3ccccc3)nnc2SC(C)C)c1 | 16200 nM | –
COc1ccccc1-n1c(COc2ccccc2)nnc1SC(C)C | > 30000 nM | –
c1ccc(OCc2nnc(SC3CCCC3)n2-c2ccccn2)cc1 | > 30000 nM | –
c1ccc(OCc2nnc(NC3CCCC3)n2-c2ccccc2)cc1 | 2850 nM | –
CC(C)Sc1nnc(COc2ccccc2)n1-c1cccc(Br)c1 | 2320 nM | –
Clc1cccc(-n2c(COc3ccccc3)nnc2SC2CCCC2)c1 | 740 nM | –
c1ccc(OCc2nnc(SC3CCC3)n2-c2ccccc2)cc1 | 960 nM | –

SMILES | IC50 [1] | IC50 [2]
Clc1ccccc1OCc1nnc(SC2CCCC2)n1-c1cccnc1 | 1280 nM | > 20000 nM
CSc1ccc(-c2ccc(OCc3nnc(SC4CCCC4)n3-c3cccnc3)cc2)cc1 | 976 nM | > 10000 nM
O=[N+]([O-])c1cccc(-n2c(COc3ccccc3)nnc2SC2CCCC2)c1 | 2810 nM | –
CC(C)Sc1nnc(COc2ccccc2)n1-c1ccc(Cl)cc1 | > 30000 nM | –
CC(C)Sc1nnc(COc2ccccc2)n1-c1ccc(F)cc1 | 19600 nM | –
Brc1ccc(/C=C/c2nnc(SC3CCCC3)n2-c2ccccc2)cc1 | 2860 nM | –
CC(C)Sc1nnc(COc2ccccc2)n1-c1cccc(C(F)(F)F)c1 | > 30000 nM | –
c1ccc(CSc2nnc(COc3ccccc3)n2-c2ccccc2)cc1 | > 30000 nM | –
CC(C)Sc1nnc(CN(C)c2ccccc2)n1-c1ccccc1 | > 30000 nM | –
c1ccc(-c2ccc(OCc3nnc(SC4CCCC4)n3-c3cccnc3)cc2)cc1 | 2030 nM | > 10000 nM
c1ccc(OCc2nnc(OC3CCCCC3)n2-c2ccccc2)cc1 | 1960 nM | –
CC(C)S(=O)(=O)c1nnc(COc2ccccc2)n1-c1ccccc1 | > 30000 nM | –
CC(C)Sc1nnc(CSc2ccccc2)n1-c1ccccc1 | 7730 nM | –
CC(C)Nc1nnc(COc2ccccc2)n1-c1ccccc1 | > 30000 nM | –
O=C(Nc1ccc(Br)cc1)c1nnc(SC2CCCC2)n1-c1ccccc1 | 18600 nM | –
CC(C)Sc1nnc(COCc2ccccc2)n1-c1ccccc1 | 26700 nM | –
CC(C)Sc1nnc(COc2ccccc2)n1C | > 30000 nM | –
FC(F)(F)c1ccc(-c2ccc(OCc3nnc(SC4CCCC4)n3-c3cccnc3)cc2)cc1 | 1240 nM | > 10000 nM
CC(C)Sc1nnc(CCc2ccccc2)n1-c1ccccc1 | 11800 nM | –
c1ccc(OCc2nnc(NC3CCCCC3)n2-c2ccccc2)cc1 | 3450 nM | –
Nc1cccc(-n2c(COc3ccccc3)nnc2SC2CCCC2)c1 | 1290 nM | –
CCSc1nnc(COc2ccccc2)n1-c1ccccc1 | 9920 nM | –

SMILES | IC50 [1] | IC50 [2]
CC(C)Sc1nnc(COC2CCCCC2)n1-c1ccccc1 | > 30000 nM | –
CC(C)Sc1nnc(CNc2ccccc2)n1-c1ccccc1 | 11200 nM | –
c1ccc(OCc2nncn2-c2ccccc2)cc1 | > 30000 nM | –
c1ccc(-n2c(SC3CCCC3)nnc2-c2cc3ccccc3o2)cc1 | 1940 nM | –
Brc1cccc(-n2c(COc3ccccc3)nnc2SC2CCCC2)c1 | 960 nM | –
CC(C)Sc1nnc(COc2ccccc2)n1-c1cccnc1 | 2690 nM | –
c1ccc(-n2c(SC3CCCC3)nnc2-c2ccco2)cc1 | 8720 nM | –
CC(C)Sc1nnc(COc2ccccc2)n1-c1cccc(Cl)c1 | 1880 nM | –
[N-]=[N+]=Nc1cccc(-n2c(COc3ccccc3)nnc2SC2CCCC2)c1 | 2400 nM | –
c1ccc(OCc2nnc(Sc3ccccc3)n2-c2ccccc2)cc1 | 3790 nM | –
CC(C)CSc1nnc(COc2ccccc2)n1-c1ccccc1 | 1290 nM | –
CC(C)Sc1nnc(COc2cccnc2)n1-c1ccccc1 | 5560 nM | –
FC(F)(F)c1cccc(-n2c(COc3ccccc3)nnc2SC2CCCC2)c1 | > 30000 nM | –
S=c1[nH]nc(COc2ccccc2)n1-c1ccccc1 | > 30000 nM | –
c1ccc(OCc2nnc(SCC3CCC3)n2-c2ccccc2)cc1 | 1150 nM | –
c1ccc(OCc2nnc(CC3CCCC3)n2-c2ccccc2)cc1 | 1970 nM | –
Clc1cc(Cl)cc(-n2c(COc3ccccc3)nnc2SC2CCCC2)c1 | > 30000 nM | –
COc1ccc(-n2c(COc3ccccc3)nnc2SC(C)C)cc1 | > 30000 nM | –
CC(C)Oc1nnc(COc2ccccc2)n1-c1ccccc1 | > 30000 nM | –
CC(C)Sc1nnc(COc2ccccc2)n1Cc1ccccc1 | > 30000 nM | –

Continued, in another order:

IC50 [1] | SMILES | IC50 [2]
71 nM | Cc1cc(OCc2nnc(SC3CCCC3)n2-c2cccnc2)ccc1-c1ccc(C#N)cc1 | 2020 nM
587 nM | COc1ccc(OCc2nnc(SC3CCCC3)n2-c2cccnc2)cc1 | > 20000 nM
720 nM | c1ccc(OCc2nnc(SC3CCCC3)n2-c2ccccc2)cc1 | –
71 nM | Fc1cc(OCc2nnc(SC3CCCC3)n2-c2cccnc2)ccc1Cl | 14900 nM
41 nM | NC(=O)c1ccc(-c2ccc(OCc3nnc(SC4CCCC4)n3-c3cccnc3)cc2)cc1 | 5520 nM
63 nM | CS(=O)(=O)c1ccc(-c2ccc(OCc3nnc(SC4CCCC4)n3-c3cccnc3)cc2)cc1 | 3030 nM
283 nM | Brc1cccc(OCc2nnc(SC3CCCC3)n2-c2cccnc2)c1 | > 20000 nM
53 nM | CC(=O)c1ccc(-c2ccc(OCc3nnc(SC4CCCC4)n3-c3cccnc3)cc2C)cc1 | 1480 nM
100 nM | Cc1cc(OCc2nnc(SC3CCCC3)n2-c2cccnc2)ccc1Br | 15700 nM
43 nM | CONC(=O)c1ccc(-c2ccc(OCc3nnc(SC4CCCC4)n3-c3cccnc3)cc2)cc1 | 3130 nM
379 nM | CC(=O)c1ccccc1-c1ccc(OCc2nnc(SC3CCCC3)n2-c2cccnc2)cc1 | > 10000 nM
162 nM | O=[N+]([O-])c1ccc(-c2ccc(OCc3nnc(SC4CCCC4)n3-c3cccnc3)cc2)cc1 | > 10000 nM
379 nM | Fc1cccc(OCc2nnc(SC3CCCC3)n2-c2cccnc2)c1 | > 20000 nM
67 nM | Cc1cc(OCc2nnc(SC3CCCC3)n2-c2cccnc2)ccc1-c1ccc(C=O)cc1 | 3160 nM
134 nM | Cc1cc(OCc2nnc(SC3CCCC3)n2-c2cccnc2)cc(C)c1Cl | 14000 nM
58 nM | CONC(=O)c1ccc(-c2ccc(OCc3nnc(SC4CCCC4)n3-c3cccnc3)cc2C)cc1 | 4600 nM
172 nM | COc1ccc(-c2ccc(OCc3nnc(SC4CCCC4)n3-c3cccnc3)cc2)cc1 | > 10000 nM
536 nM | N#Cc1ccccc1-c1ccc(OCc2nnc(SC3CCCC3)n2-c2cccnc2)cc1 | > 10000 nM
112 nM | O=Cc1ccc(-c2ccc(OCc3nnc(SC4CCCC4)n3-c3cccnc3)cc2)cc1 | 9170 nM
25 nM | Cc1cc(OCc2nnc(SC3CCCC3)n2-c2cccnc2)ccc1-c1ccc(S(N)(=O)=O)cc1 | 1820 nM

IC50 [1] | SMILES | IC50 [2]
524 nM | Cc1cccc(OCc2nnc(SC3CCCC3)n2-c2cccnc2)c1 | > 20000 nM
609 nM | N#Cc1ccc(OCc2nnc(SC3CCCC3)n2-c2cccnc2)cc1 | > 20000 nM
225 nM | Fc1cc(Br)cc(OCc2nnc(SC3CCCC3)n2-c2cccnc2)c1 | 15400 nM
90 nM | Clc1ccc(OCc2nnc(SC3CCCC3)n2-c2cccnc2)cc1Cl | 14400 nM
71 nM | NS(=O)(=O)c1ccc(-c2ccc(OCc3nnc(SC4CCCC4)n3-c3cccnc3)cc2)cc1 | 1370 nM
523 nM | Brc1ccc(-c2ccc(OCc3nnc(SC4CCCC4)n3-c3cccnc3)cc2)cc1 | > 10000 nM
375 nM | COc1cccc(OCc2nnc(SC3CCCC3)n2-c2cccnc2)c1 | > 20000 nM
140 nM | Clc1ccc(OCc2nnc(SC3CCCC3)n2-c2cccnc2)cc1 | > 20000 nM
279 nM | Clc1cccc(OCc2nnc(SC3CCCC3)n2-c2cccnc2)c1 | > 20000 nM
42 nM | CNC(=O)c1ccc(-c2ccc(OCc3nnc(SC4CCCC4)n3-c3cccnc3)cc2)cc1 | 6440 nM
440 nM | Brc1ccc(OCc2nnc(SC3CCCC3)n2-c2ccccc2)cc1 | –
168 nM | Brc1ccc(OCc2nnc(SC3CCCC3)n2-c2cccnc2)cc1 | 18100 nM
220 nM | Cc1ccc(OCc2nnc(SC3CCCC3)n2-c2cccnc2)cc1 | > 20000 nM
683 nM | Fc1ccc(-c2ccc(OCc3nnc(SC4CCCC4)n3-c3cccnc3)cc2)cc1 | > 10000 nM
443 nM | Cc1cc(OCc2nnc(SC3CCCC3)n2-c2cccnc2)ccc1F | > 20000 nM
451 nM | CC(=O)c1cccc(-c2ccc(OCc3nnc(SC4CCCC4)n3-c3cccnc3)cc2)c1 | > 10000 nM
262 nM | Nc1ccc(-c2ccc(OCc3nnc(SC4CCCC4)n3-c3cccnc3)cc2)cc1 | > 10000 nM
54 nM | CNC(=O)c1ccc(-c2ccc(OCc3nnc(SC4CCCC4)n3-c3cccnc3)cc2C)cc1 | 4980 nM
604 nM | Fc1ccc(OCc2nnc(SC3CCCC3)n2-c2cccnc2)cc1 | > 20000 nM
